Measurements published in US10022328B2, “Dialkyl sulfosuccinate compositions, method of making, and method of use” (CYTEC INDUSTRIES INC., priority 2015, dated 2018).

Test: Contact angle of excipient solution in 0.1 M HCl with API pellet (sessile drop)
Type: physicochemical
Settings: 0.1% excipient in 0.1 M HCl, 10-μL drops on pressed API pellet
Description: A factor which contributes to the bioavailability of active pharmaceutical ingredients (API's) is the wetting of the API by an aqueous solution at a physiological pH. Wetting can affect dissolution rates of the API in the aqueous solution. Wetting can be assessed by measuring the contact angle between an aqueous solution and an API. In these examples, the sessile drop method was used to determine contact angles. Pellets of API were produced using an X-press 3630 with a 35-mm pressing die. The API was pressed into a 35-mm diameter aluminum pan using the standard 30-ton cycle in order to produce a flat surface. Drops (10-μL) of a 0.1% test solution of an excipient were used. The test solution was 0.1 M HCl, to simulate physiological conditions in the human stomach.

Contact Angle with Fenofibrate [°] | Contact Angle with Glipizide [°] | Contact Angle with Ibuprofen [°] | Contact Angle with Naproxen [°] | Contact Angle with Ritonavir [°] | Compound
47 | 43 | 54 | 34 | 57 | CCCCCCCCCCCCOS(=O)(=O)[O-].[Na+] [SLS, Sodium lauryl sulfate]
58 | 42 | 45 | 48 | 40 | Polyoxyethylene (20) sorbitan monolaurate [TWEEN ™ 20]
70 | 55 | 68 | 52 | 51 | Polyoxyethylene (20) sorbitan monooleate [TWEEN ™ 80]
